Experiments:
benzodiazepine receptors [1] = settings: general statement on how activity is indicated in the test; cited from earlier work
rats [2] = experiment: Anti-conflict activity / shock-induced suppression of drinking (SSD) test; assay type: in vivo; settings: for anticonflict activity (increase in mean number of shocks taken vs vehicle controls): substance given alone; for antagonism of the anticonflict or disinhibiting activity (increase in shocks taken) of benzodiazepine agonists: oral or i.p., 0.2 to 50 mg per kg, 30 to 45 minutes before the benzodiazepine agonist
Method: A modification of the method of Vogel and coworkers (1971) is used. […] In this test, benzodiazepine agonists (e.g. chlordiazepoxide) are administered either intraperitoneally (i.p.) or orally (p.o.) at 30 or 60 min., respectively, prior to the initiation of the test. […]
The mean number of shocks taken for the groups that received the test agents (benzodiazepine agonists) alone and in the presence of benzodiazepine antagonist are recorded.

rats [3] = experiment: Neuromuscular impairment / roto-rod test; settings: for neuromuscular uncoordination (ataxia) on the roto-rod: benzodiazepine agonist alone; for antagonism of diazepam-induced neuromuscular impairment on the roto-rod: oral or intraperitoneal, 30 to 45 minutes before the benzodiazepine agonist
Method: Further tests may be conducted to evaluate the agonist/antagonist profile of a compound. The procedures or methods used to determine anticonflict (shock-induced suppressions of drinking test), antagonism of metrazole-induced convulsions and neuromuscular impairment (roto-rod studies) are published in Eur. J. Pharmacol. 78(3):323-333 (1980) and briefly discussed below. To determine the antagonist properties of a test compound, subjects are treated with test agent intraperitoneally or orally at selected intervals prior to or following treatment with a benzodiazepine agonist, and are then tested under the appropriate test conditions.
A roto-rod test (Rinnard and Car, J. Pharmacol. and Exp. Therap. 121:354 (1957)) which measures the rat's muscle tone and ability to perform coordinated locomotor tasks may be used to evaluate a test compound's antagonist properties. In the roto-rod test, rats are trained to maintain themselves for at least 1 min on a rotating rod (6 r.p.m.). Subjects are treated with a test compound and are retested for their ability to maintain themselves on the roto-rod at 30 and 60 min. post-drug administration. Subjects that fail to stay on the rod for a one-minute period are considered to be neuromuscularly impaired (ataxia) and the ED50 (that dose which would be expected to produce ataxia in 50% of the rats tested) is calculated. […] The benzodiazepine antagonists may also be administered immediately prior to, or immediately after, the benzodiazepine agonist in this test.

[4] = test system: metrazole-induced convulsions; experiment: Antagonism of metrazole-induced convulsions (anticonvulsant activity); assay type: in vivo; settings: substance given alone
Method: Further tests may be conducted to evaluate the agonist/antagonist profile of a compound. […] To determine the antagonist properties of a test compound, subjects are treated with test agent intraperitoneally or orally at selected intervals prior to or following treatment with a benzodiazepine agonist, and are then tested under the appropriate test conditions.

male Wistar rats = experiment: Overt toxicity after intraperitoneal dosing; assay type: in vivo
Description: In general, the compound 4-amino-8-phenyl-N-propyl-3-cinnolinecarboxamide is believed to be able to antagonize the effects of benzodiazepine receptor agonists and will be useful whenever such antagonism is desired.

benzodiazepine receptors [5] = experiment: [3H]-flunitrazepam binding test (FNB test); settings: at a tested concentration of 500 nanomolar or less; rat cerebral cortex P2 membranes

SMILES | effect on flunitrazepam binding (displacement or enhancement) (benzodiazepine receptors [1]) | anticonflict activity (increase in mean number of shocks taken vs vehicle controls) (rats [2]) | neuromuscular uncoordination (ataxia) on the roto-rod (rats [3]) | antagonism of the anticonflict or disinhibiting activity (increase in shocks taken) of benzodiazepine agonists (rats [2]) | antagonism of diazepam-induced neuromuscular impairment on the roto-rod (rats [3]) | further results
CCCCNc1c(C(=O)OCC)c(C)nc2c1cnn2CC [tracazolate] | enhancement of the binding | – | – | – | – | –
CNC1=Nc2ccc(Cl)cc2C(c2ccccc2)=[N+]([O-])C1 [chlordiazepoxide] | – | significant (P<0.05) anticonflict activity | produce neuromuscular uncoordination (ataxia) at relatively low doses | – | – | mean number of shocks taken as compared to vehicle controls (rats [2]; rats, oral dose of 18 mg per kg chlordiazepoxide alone): significant increases
CCOC(=O)c1ncn2c1CN(C)C(=O)c1cc(F)ccc1-2 [ethyl 8-fluoro-5,6-dihydro-5-methyl-6-oxo-4H-imidazo(1,5a)(1,4)benzodiazepine-3-carboxylate] | – | – | – | antagonized | antagonized | –
CCCNC(=O)c1nnc2c(-c3ccccc3)cccc2c1N [formula Ia, 4-amino-8-phenyl-N-propyl-3-cinnolinecarboxamide] | – | does not exhibit | – | antagonized | antagonized | mean number of shocks taken (reversal of chlordiazepoxide effect) (rats [2]; rats, oral 1.25 mg per kg five minutes prior to 18 mg per kg oral chlordiazepoxide): did not exhibit a significant increase; anticonvulsant activity typical of benzodiazepine agonists [4]: does not exhibit; neuromuscular impairment (reversal of diazepam effect; ability to remain on the roto-rod) (rats [3]; rats, intraperitoneal 1.25 mg per kg five minutes after 20 mg per kg intraperitoneal diazepam): did not exhibit significant neuromuscular impairment; toxicological problems (male Wistar rats; at several multiples of a therapeutic dose): has not exhibited toxicological problems; overt toxic effects (male Wistar rats; male Wistar rats, intraperitoneal dose of 50 mg per kg): no overt toxic effects; displacement of specific [3H]-flunitrazepam binding (benzodiazepine receptors [5]): ≥ 50%
CCCCNc1c(C(=O)OCC)cnc2c1cnn2CC [cartazolate] | enhancement of the binding | – | – | – | – | –
CN1C(=O)CN=C(c2ccccc2)c2cc(Cl)ccc21 [diazepam] | – | significant (P<0.05) anticonflict activity | produce neuromuscular uncoordination (ataxia) at relatively low doses | – | – | –
